Source: PubChem BioAssay AID330 (DTP/NCI, 2004)
Where “and” joins values, the source holds several entries; their conditions need not be identical. Identical values can stand only once. Inconclusive results and toxic doses are left out.

System: P388 leukemia ip, CD2F1 mice, survival T/C
Assay: NCI In Vivo Anticancer Drug Screen. Data for tumor model P388 Leukemia (intraperitoneal) in CD2F1 (CDF1) mice
Conditions: endpoint: median survival time, higher = longer survival
Summary of the method: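 Mice carrying the transplanted tumor received test compound or vehicle. Survival was recorded in each group, and the value is the treated-group measurement divided by that of the vehicle-treated control group.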

[1] = dose: 100.0 mg/kg/injection, schedule: Q04DX002 (ip), vehicle: saline with Tween-80
[2] = dose: 200.0 mg/kg/injection, schedule: Q04DX002 (ip), vehicle: saline with Tween-80
[3] = dose: 400.0 mg/kg/injection, schedule: Q04DX002 (ip), vehicle: saline with Tween-80
[4] = dose: 50.0 mg/kg/injection, schedule: Q01DX009 (ip), vehicle: saline with Tween-80
[5] = dose: 100.0 mg/kg/injection, schedule: Q01DX009 (ip), vehicle: saline with Tween-80
[6] = dose: 200.0 mg/kg/injection, schedule: Q01DX009 (ip), vehicle: saline with Tween-80
[7] = dose: 50.0 mg/kg/injection, schedule: Q01DX009 (ip), vehicle: saline
[8] = dose: 100.0 mg/kg/injection, schedule: Q01DX009 (ip), vehicle: saline
[9] = dose: 50.0 mg/kg/injection, schedule: Q01DX005 (ip), vehicle: saline with Tween-80
[10] = dose: 100.0 mg/kg/injection, schedule: Q01DX005 (ip), vehicle: saline with Tween-80
[11] = dose: 200.0 mg/kg/injection, schedule: Q01DX005 (ip), vehicle: saline with Tween-80
[12] = dose: 12.5 mg/kg/injection, schedule: Q01DX009 (ip), vehicle: saline with Tween-80
[13] = dose: 25.0 mg/kg/injection, schedule: Q01DX009 (ip), vehicle: saline with Tween-80
[14] = dose: 50.0 mg/kg/injection, schedule: Q01DX005 (ip), vehicle: Klucel (hydroxypropylcellulose) (HPC)
[15] = dose: 100.0 mg/kg/injection, schedule: Q01DX005 (ip), vehicle: Klucel (hydroxypropylcellulose) (HPC)
[16] = dose: 200.0 mg/kg/injection, schedule: Q01DX005 (ip), vehicle: Klucel (hydroxypropylcellulose) (HPC)
[17] = dose: 7.5 mg/kg/injection, schedule: Q01DX005 (ip), vehicle: saline with Tween-80
[18] = dose: 15.0 mg/kg/injection, schedule: Q01DX005 (ip), vehicle: saline with Tween-80
[19] = dose: 240.0 mg/kg/injection, schedule: Q01DX005 (ip), vehicle: saline with Tween-80
[20] = dose: 60.0 mg/kg/injection, schedule: Q01DX005 (ip), vehicle: saline with Tween-80
[21] = dose: 120.0 mg/kg/injection, schedule: Q01DX005 (ip), vehicle: saline with Tween-80

Brc1ccc2c(c1)-c1ccccc1C1=NCCN12
T/C (dose: 5.0 mg/kg/injection, schedule: Q01DX009 (ip), vehicle: saline): 100 % of control
T/C (dose: 5.0 mg/kg/injection, schedule: Q04DX003 (ip), vehicle: saline): 100 % of control
T/C (dose: 10.0 mg/kg/injection, schedule: Q01DX009 (ip), vehicle: saline): 100 % of control
T/C (dose: 10.0 mg/kg/injection, schedule: Q04DX003 (ip), vehicle: saline): 100 % of control
T/C (dose: 20.0 mg/kg/injection, schedule: Q01DX009 (ip), vehicle: saline): 95 % of control
T/C (dose: 20.0 mg/kg/injection, schedule: Q04DX003 (ip), vehicle: saline): 100 % of control and 104 % of control

CCOC(=O)C1=CNN=CC12C(=O)NC(=Nc1ccccc1)N2c1ccccc1 (configuration not stated)
T/C [1]: 93 % of control
T/C [2]: 104 % of control
T/C [3]: 95 % of control

CCCCCCC(=O)/C=C/c1ccc([N+](=O)[O-])cc1
T/C [4]: 99 % of control
T/C [5]: 99 % of control
T/C [6]: 92 % of control

C1C[O][Ge]2([O]1)[O]CC[O]2
T/C [7]: 108 % of control
T/C [8]: 101 % of control
T/C (dose: 200.0 mg/kg/injection, schedule: Q01DX009 (ip), vehicle: saline): 102 % of control

CCOC(=O)Cc1ccnc(C)c1
T/C [4]: 90 % of control
T/C [5]: 90 % of control
T/C [6]: 100 % of control

Cc1c(N=Nc2cccc(F)c2)c(-c2ccccc2)nn1C(=S)S
T/C [9]: 117 % of control
T/C [10]: 111 % of control
T/C [11]: 104 % of control

CS/C(N)=N/NC(=O)CCC(=O)Nc1cc(Cl)c(Cl)cc1Cl
T/C [1]: 102 % of control
T/C [2]: 100 % of control
T/C [3]: 96 % of control

CN1CCCC1CCNc1nc(Nc2ccc(Cl)c(Cl)c2)nc2ccc(Cl)cc12 (configuration not stated)
T/C (dose: 6.25 mg/kg/injection, schedule: Q01DX009 (ip), vehicle: saline with Tween-80): 95 % of control
T/C [12]: 90 % of control
T/C [13]: 100 % of control

O=c1c2ccccc2nc(C(F)(F)F)n1CCc1c[nH]c2ccccc12
T/C [14]: 93 % of control
T/C [15]: 92 % of control
T/C [16]: 98 % of control

COCCC(=O)SCc1ccccc1
T/C [9]: 103 % of control
T/C [10]: 96 % of control
T/C [11]: 107 % of control

COC(=O)C(C#N)=C(Cl)Cl
T/C (dose: 1.56 mg/kg/injection, schedule: Q01DX005 (ip), vehicle: Klucel (hydroxypropylcellulose) (HPC)): 98 % of control
T/C (dose: 3.12 mg/kg/injection, schedule: Q01DX005 (ip), vehicle: Klucel (hydroxypropylcellulose) (HPC)): 94 % of control
T/C (dose: 6.25 mg/kg/injection, schedule: Q01DX005 (ip), vehicle: Klucel (hydroxypropylcellulose) (HPC)): 93 % of control

CSC(Cl)=NC(=O)C(=O)N=C(Cl)SC
T/C [4]: 96 % of control
T/C [5]: 89 % of control

COC(=O)/C=C/C=C/c1ccco1
T/C [4]: 99 % of control
T/C [5]: 87 % of control
T/C [6]: 89 % of control

O=C(NC(=S)Nc1ccc(CCO)cc1)c1cccc(Br)c1
T/C (dose: 3.75 mg/kg/injection, schedule: Q01DX005 (ip), vehicle: saline with Tween-80): 91 % of control
T/C [17]: 90 % of control
T/C [18]: 87 % of control
T/C [19]: 92 % of control

CC1=CC(=O)C(c2ccc(O)cc2O)=CC1=O
T/C (dose: 2.5 mg/kg/injection, schedule: Q01DX009 (ip), vehicle: saline with Tween-80): 100 % of control
T/C (dose: 5.0 mg/kg/injection, schedule: Q01DX009 (ip), vehicle: saline with Tween-80): 95 % of control
T/C (dose: 10.0 mg/kg/injection, schedule: Q01DX009 (ip), vehicle: saline with Tween-80): 86 % of control

O=C(c1cc(Cl)c(Cl)c([N+](=O)[O-])c1Cl)C(Cl)Cl
T/C (dose: 25.0 mg/kg/injection, schedule: Q04DX003 (ip), vehicle: Klucel (hydroxypropylcellulose) (HPC)): 104 % of control
T/C (dose: 50.0 mg/kg/injection, schedule: Q04DX003 (ip), vehicle: Klucel (hydroxypropylcellulose) (HPC)): 99 % of control
T/C (dose: 100.0 mg/kg/injection, schedule: Q04DX003 (ip), vehicle: Klucel (hydroxypropylcellulose) (HPC)): 103 % of control

C=C1CC(OC(=O)C(C)C)C2C(=C)C(=O)O[C@@H]2C2C(=C)[C@@H](O)CC12 (some centres not stated)
T/C (dose: 20.0 mg/kg/injection, schedule: Q01DX005 (ip), vehicle: saline with Tween-80): 102 % of control
T/C (dose: 40.0 mg/kg/injection, schedule: Q01DX005 (ip), vehicle: saline with Tween-80): 106 % of control
T/C (dose: 80.0 mg/kg/injection, schedule: Q01DX005 (ip), vehicle: saline with Tween-80): 115 % of control

CC(=O)Nn1nnc2ccccc2c1=O
T/C [9]: 97 % of control
T/C [10]: 110 % of control
T/C [11]: 110 % of control

Cc1ccccc1N1C(=O)CSC1=S
T/C [12]: 105 % of control
T/C [13]: 95 % of control
T/C [4]: 105 % of control

N#Cc1c(-c2ccccc2)nc2sccn12
T/C (dose: 100.0 mg/kg/injection, schedule: Q01DX001 (ip), vehicle: Klucel (hydroxypropylcellulose) (HPC)): 88 % of control
T/C (dose: 400.0 mg/kg/injection, schedule: Q01DX001 (ip), vehicle: Klucel (hydroxypropylcellulose) (HPC)): 91 % of control

CCCCOc1cc(C(=O)NCCN(C)C)c2ccccc2n1
T/C [17]: 104 % of control
T/C [18]: 106 % of control
T/C (dose: 30.0 mg/kg/injection, schedule: Q01DX005 (ip), vehicle: saline with Tween-80): 106 % of control

c1ccc2c(c1)[nH]c1c2nc2ncccn21
T/C [14]: 106 % of control
T/C [15]: 106 % of control

CCN(CC)CCNc1ccc(C)c2sc3ccccc3c(=O)c12 (tested in a mixture with another compound)
T/C [7]: 160 % of control
T/C [8]: 185 % of control
T/C (dose: 200.0 mg/kg/injection, schedule: Q04DX003 (ip), vehicle: saline): 161 % of control
T/C (dose: 300.0 mg/kg/injection, schedule: Q04DX003 (ip), vehicle: saline): 95 % of control

O=C(N/N=C/C(O)C1OC(=O)C(O)C1O)c1ccncc1 (configuration not stated)
T/C [14]: 105 % of control
T/C [15]: 101 % of control
T/C [16]: 99 % of control

CN(C)[C@@H]1C(=O)C(C(=O)NCNC2CC(C)(C)N(O)C(C)(C)C2)=C(O)C2(O)C(=O)C3=C(O)c4c(O)cccc4[C@@](C)(O)C3CC12 (some centres not stated)
T/C (dose: 100.0 mg/kg/injection, schedule: Q01DX001 (ip), vehicle: saline): 105 % of control
T/C (dose: 200.0 mg/kg/injection, schedule: Q01DX001 (ip), vehicle: saline): 89 % of control
T/C (dose: 400.0 mg/kg/injection, schedule: Q01DX001 (ip), vehicle: saline): 91 % of control

CN1C(C(=O)Nc2nccs2)=C(O)c2ccccc2S1(=O)=O
T/C [20]: 105 % of control
T/C [21]: 98 % of control

Cn1c(O)c(C2=NC(C(=O)O)CS2)c(=O)n(C)c1=O (configuration not stated)
T/C (dose: 60.0 mg/kg/injection, schedule: Q01DX005 (ip), vehicle: saline): 100 % of control
T/C (dose: 120.0 mg/kg/injection, schedule: Q01DX005 (ip), vehicle: saline): 101 % of control
T/C (dose: 240.0 mg/kg/injection, schedule: Q01DX005 (ip), vehicle: saline): 101 % of control

O=c1[nH]c2ccccc2c(=O)n1-c1ccccc1
T/C [5]: 101 % of control and 109 % of control
T/C [6]: 96 % of control
T/C (dose: 400.0 mg/kg/injection, schedule: Q01DX009 (ip), vehicle: saline with Tween-80): 113 % of control and 95 % of control

OCCN(CO)CCO
T/C [20]: 117 % of control
T/C [21]: 123 % of control
T/C [19]: 115 % of control

CCOc1cc(CC[N+](C)(C)C)cc2c1ccc1ccc(OC)c(OC)c12
T/C (dose: 6.25 mg/kg/injection, schedule: Q01DX005 (ip), vehicle: saline with Tween-80): 99 % of control
T/C (dose: 12.5 mg/kg/injection, schedule: Q01DX005 (ip), vehicle: saline with Tween-80): 100 % of control
T/C (dose: 25.0 mg/kg/injection, schedule: Q01DX005 (ip), vehicle: saline with Tween-80): 96 % of control

Nc1ccc2[nH]c(=O)cc(C(=O)O)c2c1
T/C [9]: 92 % of control
T/C [10]: 93 % of control
T/C [11]: 92 % of control

CCn1cc(C(=O)O)c(=O)c2cc(Cl)c(-n3cccc3)cc21
T/C [20]: 95 % of control
T/C [21]: 99 % of control
T/C [19]: 94 % of control
